Test results taken from article PMC9095466 (Nature, 2022).
Several values for one entry are separate records, joined by “and”; a condition that tells them apart may be missing. Identical values can stand only once. Counter-ions that a name gives are not always drawn. Like-named read-outs stand apart in the source and are kept apart here.

Assays:
SARS-CoV-2 (VIDO) = format: cell-based; design: plaque assay titre, Figure 2c: unit not given beside the values; conditions: for reduction of viral titre (plaque assay): supernatant of infected Calu-3 cells, vs DMSO-treated infected control; for plaque assay titre, Figure 2c: replicate columns, listed as Cm
human TMPRSS2 = human TMPRSS2 (Homo sapiens, UniProt O15393); test: cell-based
[1] = tested on: SARS-CoV-2 lineage B strain (VIDO); test: microbe, parasite or virus in culture; format: cell-based
[2] = biological target: T1, Recombinant human matriptase (Homo sapiens, UniProt Q9Y5Y6); test: Protease selectivity, Ki on recombinant protease; format: biochemical
T1 construct: made in house
T1 sequence (Q9Y5Y6 1-855): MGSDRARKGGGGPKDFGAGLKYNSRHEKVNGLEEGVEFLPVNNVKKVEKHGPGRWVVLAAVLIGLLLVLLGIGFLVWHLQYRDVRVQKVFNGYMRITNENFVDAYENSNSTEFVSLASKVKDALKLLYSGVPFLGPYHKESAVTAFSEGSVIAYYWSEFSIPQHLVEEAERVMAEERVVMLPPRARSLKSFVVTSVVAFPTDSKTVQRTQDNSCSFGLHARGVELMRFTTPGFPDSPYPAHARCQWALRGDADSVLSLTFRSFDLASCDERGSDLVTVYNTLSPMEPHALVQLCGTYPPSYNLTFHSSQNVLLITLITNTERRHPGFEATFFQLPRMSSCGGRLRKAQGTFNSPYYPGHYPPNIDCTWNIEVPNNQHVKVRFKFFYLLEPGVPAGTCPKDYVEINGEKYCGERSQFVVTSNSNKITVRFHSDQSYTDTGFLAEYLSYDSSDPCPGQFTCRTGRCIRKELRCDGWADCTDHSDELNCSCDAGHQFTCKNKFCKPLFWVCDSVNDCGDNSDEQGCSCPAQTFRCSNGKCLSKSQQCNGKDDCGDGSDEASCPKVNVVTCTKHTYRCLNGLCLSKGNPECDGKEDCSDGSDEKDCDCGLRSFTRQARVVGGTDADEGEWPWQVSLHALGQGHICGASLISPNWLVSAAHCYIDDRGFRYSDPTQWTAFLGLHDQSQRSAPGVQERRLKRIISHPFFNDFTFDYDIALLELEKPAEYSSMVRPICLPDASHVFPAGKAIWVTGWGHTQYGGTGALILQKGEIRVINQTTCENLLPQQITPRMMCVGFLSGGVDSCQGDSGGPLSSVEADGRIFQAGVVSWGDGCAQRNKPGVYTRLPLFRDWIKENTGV

SARS-CoV-2 [3] = tested on: SARS-CoV-2; design: method as in PMID 32142651, PMID 33844653; conditions: adenovirus hACE2 model; cited from earlier work
Recombinant human DESC1 = biological target: T2, Recombinant human DESC1 (Homo sapiens, UniProt Q9UL52); test: Protease selectivity, Ki on recombinant protease; format: biochemical
T2 construct: made in house
T2 sequence (Q9UL52 1-423): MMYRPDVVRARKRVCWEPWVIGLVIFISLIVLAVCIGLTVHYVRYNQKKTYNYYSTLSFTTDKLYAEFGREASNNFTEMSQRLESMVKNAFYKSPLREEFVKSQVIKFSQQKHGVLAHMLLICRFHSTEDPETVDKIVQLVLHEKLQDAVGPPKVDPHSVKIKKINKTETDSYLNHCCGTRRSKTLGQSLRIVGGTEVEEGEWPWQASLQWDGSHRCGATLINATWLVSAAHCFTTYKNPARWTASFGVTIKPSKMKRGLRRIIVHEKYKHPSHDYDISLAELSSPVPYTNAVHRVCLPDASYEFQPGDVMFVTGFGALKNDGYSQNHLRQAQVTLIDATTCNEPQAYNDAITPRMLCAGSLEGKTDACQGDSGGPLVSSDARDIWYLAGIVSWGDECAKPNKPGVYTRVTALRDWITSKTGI

Vero E6 cells = test: Cytotoxicity assay (Cell Titer-Glo 2.0) in Vero E6 cells; format: cell-based; conditions: 10 μM compound, 24 h, relative to vehicle (DMSO 0.01%); single experiments N1-N4; 10 µM
Description: Calu-3 and Vero E6 cells (2500 or 10,000 cells for samples, 80–20,000 cells for standard curve) were seeded in 96-well plates. Following a 24-h incubation at 37 °C, 5% CO2, cells were washed with D-PBS and compounds added (10 µM) for an additional 24-h incubation. Cellular viability was assessed using Cell Titer-Glo 2.0 Cell Viability Assay (Promega) according to the manufacturer’s instructions. The number of viable cells was extrapolated using the standard curve. Cellular viability in Vero E6 cells was expressed relative (%) to vehicle-treated cells. Data are from four independent experiments (mean ± s.d.).

SARS-CoV-2 [4] = tested on: SARS-CoV-2; design: method as in PMID 33903855; conditions: hospitalized patients with COVID-19; cited from earlier work

human TMPRSS2, sequence (O15393 whole entry): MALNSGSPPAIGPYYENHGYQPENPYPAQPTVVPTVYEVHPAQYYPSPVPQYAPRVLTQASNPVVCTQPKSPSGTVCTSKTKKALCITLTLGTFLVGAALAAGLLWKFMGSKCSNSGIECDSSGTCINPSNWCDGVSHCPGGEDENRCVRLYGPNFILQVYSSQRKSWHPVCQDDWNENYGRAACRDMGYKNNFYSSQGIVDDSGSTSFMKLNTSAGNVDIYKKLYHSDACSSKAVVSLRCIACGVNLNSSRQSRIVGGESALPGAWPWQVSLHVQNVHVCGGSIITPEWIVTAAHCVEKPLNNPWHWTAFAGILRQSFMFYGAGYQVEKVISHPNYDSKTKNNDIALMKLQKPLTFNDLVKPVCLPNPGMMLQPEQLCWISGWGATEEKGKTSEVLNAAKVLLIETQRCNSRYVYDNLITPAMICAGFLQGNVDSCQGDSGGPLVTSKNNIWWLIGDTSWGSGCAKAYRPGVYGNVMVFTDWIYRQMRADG

CN(C)C(=O)COC(=O)Cc1ccc(OC(=O)c2ccc(NC(=N)N)cc2)cc1 [Camostat mesylate, reference compound]
reduction of viral titre (plaque assay) (SARS-CoV-2 (VIDO); 40 nM): approximately half-log
plaque assay titre, Figure 2c (SARS-CoV-2 (VIDO); 40 nM): 1000 (6×) and 11000 (2×) and 20000 and 10000 (2×) and 80000 and 330000 and 30000 and 170000
reduction of viral titre (plaque assay) (SARS-CoV-2 (VIDO); 200 nM): approximately 1.5 log
plaque assay titre, Figure 2c (SARS-CoV-2 (VIDO); 200 nM): 1000 (9×) and 40000 and 10000 (3×) and 130000 and 30000 and 20000
TMPRSS2 activity (%) (human TMPRSS2; Figure 1B, single experiments N1-N3, listed as Cm): 51.0758% and 41.2255% and 43.3144%
inhibition at 0.01 µM (human TMPRSS2; Vero C1008, 10 nM compound, 24 h, vs untreated/vehicle TMPRSS2-expressing Vero E6 cells, read-out: inhibition of TMPRSS2 activity (reduction of substrate proteolysis)): 56%
Nucleocapsid ([1]; Figure 2a, two replicates, DMSO control about 91-94, listed as Cm): 8.612 and 24.2399
dsRNA ([1]; Figure 2a, two replicates, DMSO control about 93-95, listed as Cm): 17.4079 and 31.7604
EC50 ([1]; Severe acute respiratory syndrome coronavirus 2, Calu-3, read-out: SARS-CoV-2 VIDO Nucleocapsid EC50 ± SE): 10.6 ± 8.4 nM
inhibition at 0.1 µM ([1]; Severe acute respiratory syndrome coronavirus 2, Calu-3, read-out: inhibition of SARS-CoV-2 infection): > 83%
Figure 2b dose-response, Mean ([1]; log [C] (nM) 0.20412): 84.468
Figure 2b dose-response, Mean ([1]; log [C] (nM) 0.90309): 76.973
Figure 2b dose-response, Mean ([1]; log [C] (nM) 1.60206): 24.9288
Figure 2b dose-response, Mean ([1]; log [C] (nM) 2.30103): 0.8428
Figure 2b dose-response, Mean ([1]; log [C] (nM) 3): 0.2267
Figure 2b dose-response, Mean ([1]; log [C] (nM) -0.49485): 80.5882
Figure 2b dose-response, Mean ([1]; log [C] (nM) -1.19382): 94.4767
Ki ([2]; mean ± s.d., max concentration 10 µM, read-out: Ki Matriptase): 5.6 ± 1 nM
Ki ([2]; single experiments N1-N3, Figure 1D, read-out: Individual Ki, Matriptase): 6.79 nM and 5.15 nM and 4.98 nM
protection against infection (SARS-CoV-2 [3]): no significant protection against infection was observed
Ki (Recombinant human DESC1; mean ± s.d., max concentration 10 µM, read-out: Ki DESC1): 5.8 ± 3.4 nM
Ki (Recombinant human DESC1; single experiments N1-N3, Figure 1D, read-out: Individual Ki, Desc1): 7.88 nM and 7.73 nM and 1.85 nM
% Viability of Vero E6 cells (Vero E6 cells): 115.453% and 94.4731% and 96.0284% and 136.615%
effect on the time to recovery and incidence of death (SARS-CoV-2 [4]): no effect
